Results from the supplement of paper PMC10307832.

Experiments:
Assay in all cases: relative viability (nuclei count vs DMSO), 5 days (fraction); higher = more cells survive
AZ505 + Dasatinib = compound: C1CCC(CC1)N(CCNCCC2=C3C(=C(C=C2)O)NC(=O)CO3)C(=O)CCNCCC4=CC(=C(C=C4)Cl)Cl [AZ505] + Cc1nc(Nc2ncc(C(=O)Nc3c(C)cccc3Cl)s2)cc(N2CCN(CCO)CC2)n1 [Dasatinib] (partner 0.075 µM)
Summary of the method: (§1)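 Relative viability is defined as nuclei in treated wells over nuclei in vehicle wells. Duplicate plates were run and medians reported. Lung cancer cell lines in 1536-well plates were dosed by pin tool one day after seeding, with one drug or with a fixed anchor-drug dose plus five library-drug doses (not always all listed) in √10 steps, and nuclei were counted after 5 days.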

Dactolisib + Trametinib = compound: Cn1c(=O)n(-c2ccc(C(C)(C)C#N)cc2)c2c3cc(-c4cnc5ccccc5c4)ccc3ncc21 [Dactolisib] + CC(=O)Nc1cccc(-n2c(=O)n(C3CC3)c(=O)c3c(Nc4ccc(I)cc4F)n(C)c(=O)c(C)c32)c1 [Trametinib] (partner 0.02 µM)
Summary of the method: as §1

Dactolisib + Foretinib = compound: Cn1c(=O)n(-c2ccc(C(C)(C)C#N)cc2)c2c3cc(-c4cnc5ccccc5c4)ccc3ncc21 [Dactolisib] + COc1cc2c(Oc3ccc(NC(=O)C4(C(=O)Nc5ccc(F)cc5)CC4)cc3F)ccnc2cc1OCCCN1CCOCC1 [Foretinib] (partner 0.25 µM)
Summary of the method: as §1

Dactolisib + Pictilisib = compound: Cn1c(=O)n(-c2ccc(C(C)(C)C#N)cc2)c2c3cc(-c4cnc5ccccc5c4)ccc3ncc21 [Dactolisib] + CS(=O)(=O)N1CCN(Cc2cc3nc(-c4cccc5[nH]ncc45)nc(N4CCOCC4)c3s2)CC1 [Pictilisib] (partner 1 µM)
Summary of the method: as §1

Cell Line | relative viability (AZ505 + Dasatinib; first compound 0.08 µM) | relative viability (AZ505 + Dasatinib; first compound 0.253 µM) | relative viability (AZ505 + Dasatinib; first compound 0.8 µM) | relative viability (AZ505 + Dasatinib; first compound 2.53 µM) | relative viability (AZ505 + Dasatinib; first compound 8 µM) | relative viability (Dactolisib + Trametinib; first compound 0.002 µM) | relative viability (Dactolisib + Trametinib; first compound 0.006325 µM) | relative viability (Dactolisib + Trametinib; first compound 0.02 µM) | relative viability (Dactolisib + Trametinib; first compound 0.06325 µM) | relative viability (Dactolisib + Trametinib; first compound 0.2 µM) | relative viability (Dactolisib + Foretinib; first compound 0.002 µM) | relative viability (Dactolisib + Foretinib; first compound 0.006325 µM) | relative viability (Dactolisib + Foretinib; first compound 0.02 µM) | relative viability (Dactolisib + Foretinib; first compound 0.06325 µM) | relative viability (Dactolisib + Foretinib; first compound 0.2 µM) | relative viability (Dactolisib + Pictilisib; first compound 0.002 µM) | relative viability (Dactolisib + Pictilisib; first compound 0.006325 µM) | relative viability (Dactolisib + Pictilisib; first compound 0.02 µM) | relative viability (Dactolisib + Pictilisib; first compound 0.06325 µM) | relative viability (Dactolisib + Pictilisib; first compound 0.2 µM)
201T | 0.589 | 0.548 | 0.627 | 0.601 | 0.535 | 0.73 | 0.713 | 0.688 | 0.668 | 0.449 | 0.916 | 1.11 | 1.06 | 0.636 | 0.491 | 0.753 | 0.661 | 0.661 | 0.538 | 0.539
NCI-H2126 | 0.578 | 0.579 | 0.601 | 0.646 | 0.586 | 0.557 | 0.548 | 0.433 | 0.38 | 0.306 | 1.32 | 1.24 | 1.08 | 0.653 | 0.498 | 0.563 | 0.461 | 0.434 | 0.425 | 0.368
HOP-62 | 0.528 | 0.644 | 0.484 | 0.598 | 0.64 | 0.429 | 0.349 | 0.369 | 0.23 | 0.195 | 1.26 | 1.1 | 0.974 | 0.747 | 0.516 | 0.967 | 0.58 | 0.604 | 0.236 | 0.254
CAL-12T | 0.466 | 0.585 | 0.381 | 0.413 | 0.472 | 0.343 | 0.312 | 0.248 | 0.213 | 0.184 | 1.25 | 1.09 | 0.972 | 0.898 | 0.241 | 0.407 | 0.408 | 0.358 | 0.251 | 0.254
NCI-H520 | 0.198 | 0.217 | 0.181 | 0.229 | 0.26 | 0.61 | 0.585 | 0.354 | 0.147 | 0.102 | 0.736 | 0.507 | 0.464 | 0.278 | 0.198 | 0.299 | 0.235 | 0.234 | 0.195 | 0.184
NCI-H1755 | 0.393 | 0.51 | 0.43 | 0.442 | 0.474 | 0.779 | 0.759 | 0.724 | 0.611 | 0.486 | 0.903 | 0.924 | 0.936 | 0.676 | 0.691 | 0.47 | 0.471 | 0.451 | 0.368 | 0.274
NCI-H2023 | 0.509 | 0.534 | 0.58 | 0.503 | 0.732 | 0.582 | 0.461 | 0.304 | 0.103 | 0.0921 |  | 0.672 | 0.491 | 0.343 | 0.153 | 0.205 | 0.212 | 0.173 | 0.121 | 0.108
NCI-H2009 | 0.221 | 0.267 | 0.219 | 0.237 | 0.242 | 0.276 | 0.272 | 0.213 | 0.154 | 0.126 | 1.28 | 1.24 | 1.06 | 1.2 | 0.625 | 0.961 | 0.853 | 0.727 | 0.498 | 0.322
